Measured values published in PubChem BioAssay AID2060353 (Molecular Pharmacology Branch, DTP, NCI, 2025).
“And” between values parts separate entries of the source, which are not always exact repeats. Identical values can stand only once.

Tested on: 521955-158-R2-J5-PDC spheroids with stroma, growth inhibition
Assay: Anticancer human tumor 521955-158-R2-J5-PDC patient-derived pancreatic carcinoma cell line growth inhibition [TAK]
Settings: for viability, T/C: stronger effect = lower value
Description: Combinatorial screen of targeted agents with TAK-243 and ipatasertib in multi-cell type tumor spheroids
A high-throughput screen of multi-cell type tumor spheroids was designed to identify active combinations of targeted small molecules and TAK-243 or ipatasertib. Complex spheroids include a stromal component modeled by human endothelial cells (HUVEC) and fibroblasts modeled by human mesenchymal stem cells (MSCs). The concentration ranges selected for each drug and investigational agent were based upon clinically achievable concentrations if the clinical Cmax of the agent was known.
Compounds. The drugs and investigational agents: TAK-243 (785004), ipatasertib (767898), everolimus (733504), selumetinib (741078), bortezomib (756655), trametinib (758246), ixazomib (758254), vemurafenib (761431), dabrafenib (764134), sapanisertib (764658), alpelisib (765974), and copanlisib (816437), were obtained from the National Cancer Institute (NCI) Developmental Therapeutics Program Chemical Repository. The FDA-approved anticancer drug set is available from the NCI Developmental Therapeutics Program. […] The stock solutions were prepared in dimethyl sulfoxide (DMSO, Sigma-Aldrich, St. Louis, MO, cat. D2650) at 800-fold the tested concentration and stored at -70 degrees C prior to their use. All drugs and investigational agents were tested over a range starting from a high concentration at or near the clinical Cmax and decreasing in half-log increments. If the clinical Cmax for an agent had not been determined, the highest concentration tested was 10 microM.
NCI60 Cell Culture. NCI60 cell lines were obtained from the NCI Developmental Therapeutics Program Tumor Repository. For each lot of cells, the Repository performed Applied Biosystems AmpFLSTR Identifiler testing with PCR amplification to confirm consistency with the published Identifier STR profile for each cell line. Cells were kept in continuous culture for no more than 20 passages. The optimal seeding densities for each of the cell lines at each time point assessed were determined prior to performing the concentration response studies. Briefly, the NCI60 human tumor lines were grown as monolayers in RPMI 1640 medium supplemented with 10% FBS and 2 mmol/L L-glutamine.
An additional 2 lines were from the NCI60 cell line panel including melanomas, MALME-3M and SK-MEL-2. Pooled donor human umbilical vein endothelial cells (HUVEC, Lonza, cat. CC-2519) and human mesenchymal stem cells (hMSC, Lonza, cat. PT-2501) were purchased from Lonza (Walkersville, MD).
PDMR cell lines were grown in complete medium (DC medium): Dulbecco's modified Eagle's medium (DMEM)/F12 supplemented with 5% fetal bovine serum (FBS), 2 mM L-glutamine, 100 U/mL penicillin and 100 µg/ml streptomycin, 0.4 µg/ml hydrocortisone, 10 ng/ml epidermal growth factor (EGF) recombinant human protein, 24 µg/mL adenine, and 0.1 mg/mL primocin. During culture from frozen stock vials, PDMR cells were cultured in the same medium containing 10 µM Y-27632 (see Table 3). The PDCs were cultured in complete DMEM/F12 media without 10 microM Y-27632 dihydrochloride for at least two passages prior to the screen. The pooled donor HUVEC and hMSC were cultured in endothelial cell growth medium 2 (PromoCell, Heidelberg, Germany, cat. C-22011) and mesenchymal stem cell growth medium 2 (PromoCell, cat. C-28009), respectively. For all experiments, HUVEC and hMSC were used at passages </=5.
For the pre-screen, cell seeding densities were determined from a titration spanning the range from 5,000 to 313 cells per well. The mct-spheroids including 60% malignant cells, 25% HUVEC and 15% MSC dispensed as a mixture into U-bottom Ultra-Low Attachment 384-well plates (Corning, NY)
High-throughput Drug Combination Screening.
Prior to their inoculation into 384-well plates, malignant cells, HUVEC, and hMSC were removed from T flasks using TrypLE express (Thermo Fisher Scientific, cat. 12605036) and harvested by centrifugation for 5 min at 233 x g. […]

[1] = curve of first compound, second compound 0.3 µM
[2] = curve of first compound, second compound 0.949 µM
[3] = curve of first compound, second compound 3 µM
[4] = curve of first compound, second compound 9.49 µM
[5] = curve of first compound, second compound 30 µM
[6] = second compound 0.3 µM, first compound 0.0316 µM
[7] = second compound 0.3 µM, first compound 0.1 µM
[8] = second compound 0.3 µM, first compound 0.316 µM
[9] = second compound 0.3 µM, first compound 1 µM
[10] = second compound 0.3 µM, first compound 3.16 µM
[11] = second compound 0.3 µM, first compound 10 µM
[12] = second compound 0.949 µM, first compound 0.0316 µM
[13] = second compound 0.949 µM, first compound 0.1 µM
[14] = second compound 0.949 µM, first compound 0.316 µM
[15] = second compound 0.949 µM, first compound 1 µM
[16] = second compound 0.949 µM, first compound 3.16 µM
[17] = second compound 0.949 µM, first compound 10 µM
[18] = second compound 3 µM, first compound 0.0316 µM
[19] = second compound 3 µM, first compound 0.1 µM
[20] = second compound 3 µM, first compound 0.316 µM
[21] = second compound 3 µM, first compound 1 µM
[22] = second compound 3 µM, first compound 3.16 µM
[23] = second compound 3 µM, first compound 10 µM
[24] = second compound 9.49 µM, first compound 0.0316 µM
[25] = second compound 9.49 µM, first compound 0.1 µM
[26] = second compound 9.49 µM, first compound 0.316 µM
[27] = second compound 9.49 µM, first compound 1 µM
[28] = second compound 9.49 µM, first compound 3.16 µM
[29] = second compound 9.49 µM, first compound 10 µM
[30] = second compound 30 µM, first compound 0.0316 µM
[31] = second compound 30 µM, first compound 0.1 µM
[32] = second compound 30 µM, first compound 0.316 µM
[33] = second compound 30 µM, first compound 1 µM
[34] = second compound 30 µM, first compound 3.16 µM
[35] = second compound 30 µM, first compound 10 µM
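Also: spheroids exposed to drugs for seven days before readout.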
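For viability, T/C in this document: 100% = DMSO vehicle control viability.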

SMILES | IC50 [1] [nM] | IC50 [2] [nM] | IC50 [3] [nM] | IC50 [4] [nM] | IC50 [5] [nM] | viability, T/C [6] [%] | viability, T/C [7] [%] | viability, T/C [8] [%] | viability, T/C [9] [%] | viability, T/C [10] [%] | viability, T/C [11] [%] | viability, T/C [12] [%] | viability, T/C [13] [%] | viability, T/C [14] [%] | viability, T/C [15] [%] | viability, T/C [16] [%] | viability, T/C [17] [%] | viability, T/C [18] [%] | viability, T/C [19] [%] | viability, T/C [20] [%] | also measured
Cc1nc(NC(=O)N2CCCC2C(N)=O)sc1-c1ccnc(C(C)(C)C(F)(F)F)c1 (configuration not stated) + CC(C)NCC(C(=O)N1CCN(c2ncnc3c2C(C)CC3O)CC1)c1ccc(Cl)cc1 | 909 | 533 | 159 | 123 | < 31.6 | 109 | 84.3 | 58.2 | 49 | 45.1 | 30.1 | 76.2 | 69 | 52.5 | 45 | 34.8 | 27.7 | 78.7 | 54 | 40.6 | viability, T/C [21]: 31.3%; viability, T/C [22]: 22.3%; viability, T/C [23]: 15.2%; viability, T/C [24]: 70.7%; viability, T/C [25]: 55.4%; viability, T/C [26]: 29.5%; viability, T/C [27]: 19.6%; viability, T/C [28]: 13.7%; viability, T/C [29]: 8.86%; viability, T/C [30]: 48%; viability, T/C [31]: 42.7%; viability, T/C [32]: 23.9%; viability, T/C [33]: 17.2%; viability, T/C [34]: 11%; viability, T/C [35]: 6.07%
Cc1nc(NC(=O)N2CCCC2C(N)=O)sc1-c1ccnc(C(C)(C)C(F)(F)F)c1 (configuration not stated) |  |  |  |  |  |  |  |  |  |  |  |  |  |  |  |  |  |  |  |  | viability, T/C (compound 0.0316 µM): 90.1% and 88.9%; viability, T/C (compound 0.1 µM): 88.6% and 71.4%; viability, T/C (compound 0.316 µM): 77.4% and 65.2%; viability, T/C (compound 1 µM): 62.1% and 51.6%; viability, T/C (compound 3.16 µM): 49.1% and 47.6%; viability, T/C (compound 10 µM): 35.7% and 40.8%; IC50 (curve of compound): 2680 nM and 1740 nM
CC(C)(C)c1nc(-c2cccc(NS(=O)(=O)c3c(F)cccc3F)c2F)c(-c2ccnc(N)n2)s1 + CC(C)NCC(C(=O)N1CCN(c2ncnc3c2C(C)CC3O)CC1)c1ccc(Cl)cc1 | > 10000 | 9730 | 6270 | 4960 | 1070 | 115 | 135 | 135 | 134 | 96.8 | 60.3 | 116 | 117 | 109 | 100 | 79.5 | 49.1 | 89.8 | 93.8 | 72.2 | viability, T/C [21]: 92.1%; viability, T/C [22]: 75.4%; viability, T/C [23]: 32.8%; viability, T/C [24]: 92.3%; viability, T/C [25]: 83.9%; viability, T/C [26]: 65.1%; viability, T/C [27]: 66.2%; viability, T/C [28]: 71.4%; viability, T/C [29]: 33.4%; viability, T/C [30]: 59.7%; viability, T/C [31]: 56.7%; viability, T/C [32]: 50.9%; viability, T/C [33]: 51.2%; viability, T/C [34]: 44.8%; viability, T/C [35]: 28.7%
